Source: PubChem BioAssay (NCI)
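All cell lines were grown in 96-well plates and treated with compound for 48 hours. Definition used: TGI = concentration required for complete inhibition of growth.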

Tests used:
Assay in all cases: NCI-60 cell line screen, 48 h
IGROV1 ovarian = tested on: IGROV1 ovarian
OVCAR-4 ovarian = tested on: OVCAR-4 ovarian
HCT-15 colon = tested on: HCT-15 colon
HOP-18 NSCLC = tested on: HOP-18 NSCLC
SNB-19 CNS = tested on: SNB-19 CNS
OVCAR-5 ovarian = tested on: OVCAR-5 ovarian
M14 melanoma = tested on: M14 melanoma
NCI-H460 lung = tested on: NCI-H460 lung
SK-OV-3 ovarian = tested on: SK-OV-3 ovarian
SN12C renal = tested on: SN12C renal
OVCAR-8 ovarian = tested on: OVCAR-8 ovarian
SR leukemia = tested on: SR leukemia
HT29 colon = tested on: HT29 colon
EKVX NSCLC = tested on: EKVX NSCLC
M19-MEL melanoma = tested on: M19-MEL melanoma
A549 NSCLC = tested on: A549 NSCLC
KM12 colon = tested on: KM12 colon
HCT-116 colon = tested on: HCT-116 colon
UACC-257 melanoma = tested on: UACC-257 melanoma
UO-31 renal = tested on: UO-31 renal
SNB-78 CNS = tested on: SNB-78 CNS
LXFL 529 NSCLC = tested on: LXFL 529 NSCLC
SNB-75 CNS = tested on: SNB-75 CNS
DMS 114 small cell lung = tested on: DMS 114 small cell lung
COLO 205 colon = tested on: COLO 205 colon
XF 498 CNS = tested on: XF 498 CNS
RPMI-8226 leukemia = tested on: RPMI-8226 leukemia
KM20L2 colon = tested on: KM20L2 colon
DMS 273 small cell lung = tested on: DMS 273 small cell lung
SK-MEL-28 melanoma = tested on: SK-MEL-28 melanoma
UACC-62 melanoma = tested on: UACC-62 melanoma
CAKI-1 renal = tested on: CAKI-1 renal
A498 renal = tested on: A498 renal
SF-268 CNS = tested on: SF-268 CNS
U251 CNS = tested on: U251 CNS
CCRF-CEM leukemia = tested on: CCRF-CEM leukemia
LOX IMVI melanoma = tested on: LOX IMVI melanoma
ACHN renal = tested on: ACHN renal
DLD-1 colon = tested on: DLD-1 colon
RXF 393 renal = tested on: RXF 393 renal
HL-60(TB) leukemia = tested on: HL-60(TB) leukemia
786-0 renal = tested on: 786-0 renal
NCI-H226 lung = tested on: NCI-H226 lung
SK-MEL-5 melanoma = tested on: SK-MEL-5 melanoma
SF-295 CNS = tested on: SF-295 CNS
HOP-92 NSCLC = tested on: HOP-92 NSCLC
MALME-3M melanoma = tested on: MALME-3M melanoma
RXF-631 renal = tested on: RXF-631 renal
SW-620 colon = tested on: SW-620 colon
TK-10 renal = tested on: TK-10 renal
HCC-2998 colon = tested on: HCC-2998 colon
SF-539 CNS = tested on: SF-539 CNS
OVCAR-3 ovarian = tested on: OVCAR-3 ovarian
MOLT-4 leukemia = tested on: MOLT-4 leukemia
NCI-H23 lung = tested on: NCI-H23 lung
HOP-62 NSCLC = tested on: HOP-62 NSCLC
NCI-H522 lung = tested on: NCI-H522 lung
SK-MEL-2 melanoma = tested on: SK-MEL-2 melanoma
K-562 leukemia = tested on: K-562 leukemia

## CCCCCCCCCCCCCCCCCC(=O)NCC(COP(=O)([O-])OCC[N+](C)(C)C)OC (centres undefined)
IGROV1 ovarian
  TGI: 4.72 µM
OVCAR-4 ovarian
  TGI: 13 µM
HCT-15 colon
  TGI: 5.89 µM
HOP-18 NSCLC
  TGI: 6.92 µM
SNB-19 CNS
  TGI: 3.48 µM
OVCAR-5 ovarian
  TGI: 14.4 µM
M14 melanoma
  TGI: 25.5 µM
NCI-H460 lung
  TGI: 2.59 µM
SK-OV-3 ovarian
  TGI: 28.7 µM
SN12C renal
  TGI: 15.3 µM
OVCAR-8 ovarian
  TGI: 23.6 µM
SR leukemia
  TGI: 7.36 µM
HT29 colon
  TGI: 12.9 µM
EKVX NSCLC
  TGI: 31.1 µM
M19-MEL melanoma
  TGI: 6.28 µM
A549 NSCLC
  TGI: 22.4 µM
KM12 colon
  TGI: 2.09 µM
HCT-116 colon
  TGI: 18.5 µM
UACC-257 melanoma
  TGI: 30.2 µM
UO-31 renal
  TGI: 30.7 µM
SNB-78 CNS
  TGI: 13.6 µM
LXFL 529 NSCLC
  TGI: 19.7 µM
SNB-75 CNS
  TGI: 15.8 µM
DMS 114 small cell lung
  TGI: 22.7 µM
COLO 205 colon
  TGI: 3.24 µM
XF 498 CNS
  TGI: 8.58 µM
RPMI-8226 leukemia
  TGI: 4.67 µM
KM20L2 colon
  TGI: 5.5 µM
DMS 273 small cell lung
  TGI: 2.93 µM
SK-MEL-28 melanoma
  TGI: 30.6 µM
UACC-62 melanoma
  TGI: 16.9 µM
CAKI-1 renal
  TGI: 8.14 µM
A498 renal
  TGI: 10.3 µM
SF-268 CNS
  TGI: 17.5 µM
U251 CNS
  TGI: 4.04 µM
CCRF-CEM leukemia
  TGI: 5.66 µM
LOX IMVI melanoma
  TGI: 23.3 µM
ACHN renal
  TGI: 22.7 µM
DLD-1 colon
  TGI: 8.17 µM
RXF 393 renal
  TGI: 2.1 µM
HL-60(TB) leukemia
  TGI: 2.9 µM
786-0 renal
  TGI: 3.07 µM
NCI-H226 lung
  TGI: 8.69 µM
SK-MEL-5 melanoma
  TGI: 29.5 µM
SF-295 CNS
  TGI: 13 µM
HOP-92 NSCLC
  TGI: 8.17 µM
MALME-3M melanoma
  TGI: 20.9 µM
RXF-631 renal
  TGI: 26.8 µM
SW-620 colon
  TGI: 22.9 µM
TK-10 renal
  TGI: 3.02 µM
HCC-2998 colon
  TGI: 2.31 µM
SF-539 CNS
  TGI: 31.8 µM
OVCAR-3 ovarian
  TGI: 10.2 µM
MOLT-4 leukemia
  TGI: 3.56 µM
NCI-H23 lung
  TGI: 28.7 µM
HOP-62 NSCLC
  TGI: 8.21 µM

## CCOC(=O)C1C(=O)CN2CCc3c([nH]c4ccccc34)C12C(=O)OCC (centres undefined)
IGROV1 ovarian
  TGI: > 100 µM
OVCAR-4 ovarian
  TGI: > 100 µM
HCT-15 colon
  TGI: > 100 µM
HOP-18 NSCLC
  TGI: > 100 µM
SNB-19 CNS
  TGI: > 100 µM
OVCAR-5 ovarian
  TGI: > 100 µM
M14 melanoma
  TGI: > 100 µM
NCI-H460 lung
  TGI: > 100 µM
SK-OV-3 ovarian
  TGI: > 100 µM
SN12C renal
  TGI: > 100 µM
OVCAR-8 ovarian
  TGI: > 100 µM
SR leukemia
  TGI: > 100 µM
HT29 colon
  TGI: > 100 µM
EKVX NSCLC
  TGI: > 100 µM
M19-MEL melanoma
  TGI: > 100 µM
A549 NSCLC
  TGI: > 100 µM
KM12 colon
  TGI: > 100 µM
HCT-116 colon
  TGI: > 100 µM
NCI-H522 lung
  TGI: > 100 µM
UACC-257 melanoma
  TGI: > 100 µM
UO-31 renal
  TGI: > 100 µM
SNB-78 CNS
  TGI: > 100 µM
SK-MEL-2 melanoma
  TGI: > 100 µM
LXFL 529 NSCLC
  TGI: > 100 µM
K-562 leukemia
  TGI: > 100 µM
SNB-75 CNS
  TGI: > 100 µM
DMS 114 small cell lung
  TGI: > 100 µM
COLO 205 colon
  TGI: > 100 µM
XF 498 CNS
  TGI: > 100 µM
KM20L2 colon
  TGI: > 100 µM
DMS 273 small cell lung
  TGI: > 100 µM
SK-MEL-28 melanoma
  TGI: > 100 µM
UACC-62 melanoma
  TGI: > 100 µM
CAKI-1 renal
  TGI: > 100 µM
A498 renal
  TGI: > 100 µM
SF-268 CNS
  TGI: > 100 µM
U251 CNS
  TGI: > 100 µM
CCRF-CEM leukemia
  TGI: > 100 µM
LOX IMVI melanoma
  TGI: > 100 µM
ACHN renal
  TGI: > 100 µM
DLD-1 colon
  TGI: > 100 µM
RXF 393 renal
  TGI: > 100 µM
HL-60(TB) leukemia
  TGI: > 100 µM
786-0 renal
  TGI: > 100 µM
NCI-H226 lung
  TGI: > 100 µM
SK-MEL-5 melanoma
  TGI: > 100 µM
SF-295 CNS
  TGI: > 100 µM
HOP-92 NSCLC
  TGI: > 100 µM
MALME-3M melanoma
  TGI: > 100 µM
RXF-631 renal
  TGI: > 100 µM
SW-620 colon
  TGI: > 100 µM
TK-10 renal
  TGI: > 100 µM
HCC-2998 colon
  TGI: > 100 µM
SF-539 CNS
  TGI: > 100 µM
OVCAR-3 ovarian
  TGI: > 100 µM
MOLT-4 leukemia
  TGI: > 100 µM
NCI-H23 lung
  TGI: > 100 µM
HOP-62 NSCLC
  TGI: > 100 µM
